Data as given in US8337447B2, “Device for delivery of antifibrotic agents and method” (priority 2006, dated 2012).

System: human conjunctival fibroblasts
Assay: Polymer cytotoxicity in vitro, toluidine blue staining after 7 days of culture
Type: cell-based
Conditions: MMC incorporated in salt-free P-HEMA hydrogel (Procedure 2), exponential fit, r2 0.95
Method: Measurement of polymer cytotoxicity in vitro: A single 8 mm disk of sterile polymer was affixed to the center of each 60 mm tissue culture dish with clear RTV silicone cement. The silicone cement was sterile as it came from the tube and care was taken during this procedure to maintain the sterility of both the polymer and the tissue culture dish. The cement was allowed to cure for 1-2 hours in a sterile environment, until no odor of acetic acid could be detected. […] The culture medium was removed and the cell layer was gently washed 3 times with 5 ml of phosphate-buffered saline. […] In some cases, the solutions had to be diluted with 2% aqueous sodium dodecyl sulfate to bring the absorbance within the linear range of the spectrophotometer. […]
Once these parameters had been determined, the study was repeated with early passage cultures human conjunctival fibroblasts, the cell type against which these slow release polymers will ultimately be targeted. […]
A single 8 mm disk of polymer was affixed to each culture dish with silicone cement and cells were fixed and stained 7 days after inoculation, as described in Methods. After solubilization of the cell-bound dye, the color (measured as absorbance at 650 nm) was a measure of the number of cells in each dish. […]

CO[C@@]12[C@H](COC(N)=O)C3=C(C(=O)C(C)=C(N)C3=O)N1C[C@@H]1N[C@@H]12 [MMC, mitomycin C]
concentration of MMC that inhibited 50% of cell proliferation (IC50): 0.15 mg/g dried gel
